Assay results as given in patent publication US9181259B2 (LEO PHARMA A/S, priority 2012, dated 2015).

target: T1, NK1 receptor (Homo sapiens, UniProt P25103); assay: NK1 receptor mediated intracellular [Ca2+] mobilization in U251 MG cells using FLIPR; format: cell-based; conditions: antagonist potency against Substance P (EC80), normalized to 100 nM Aprepitant, read-out: U251MG (FLIPR pIC50) (converted)
T1 construct: Measurement of NK1 Receptor Mediated Intracellular [Ca^2+]; Mobilization in U251 MG Cells Using FLIPR; endogenous in cells; host or cells: U251 MG cells
T1 sequence (P25103 whole entry): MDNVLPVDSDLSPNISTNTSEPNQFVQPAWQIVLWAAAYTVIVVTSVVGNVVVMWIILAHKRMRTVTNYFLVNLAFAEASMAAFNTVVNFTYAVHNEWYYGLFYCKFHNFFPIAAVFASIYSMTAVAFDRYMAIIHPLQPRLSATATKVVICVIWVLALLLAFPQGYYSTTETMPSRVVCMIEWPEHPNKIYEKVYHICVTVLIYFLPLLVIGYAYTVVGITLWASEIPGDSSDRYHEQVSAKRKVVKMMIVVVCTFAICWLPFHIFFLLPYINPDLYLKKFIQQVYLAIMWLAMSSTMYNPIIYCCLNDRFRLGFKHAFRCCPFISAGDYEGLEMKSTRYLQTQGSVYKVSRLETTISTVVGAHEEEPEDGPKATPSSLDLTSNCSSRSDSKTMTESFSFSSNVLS
Method: Measurement of NK1 Receptor Mediated Intracellular [Ca^2+] Mobilization in U251 MG Cells Using FLIPR
U251 MG cells were seeded into black walled clear-bottom 384-well plates (Greiner Bio-One GmbH, Frickenhausen, Germany) at a density of 15,000 cells/well in 50 μl culture medium and cultured overnight in a 37° C. 5% CO2 incubator. The cells were then loaded with the calcium sensitive dye Fluo-4 (Invitrogen) at 1 μM in buffer, containing 0.04%
Pluronic F-127 (Sigma-Aldrich), and 2.5 mM probenecid (Sigma-Aldrich) for 60 min in a humidified atmosphere of 5% CO2. Thereafter, cells were washed three times in washing buffer containing 20 mM HEPES and 2.5 mM probenecid pH 7.3. Serial dilutions of test compounds in assay buffer containing 2% dimethyl sulfoxide (final concentration in the cell plate is 0.5% DMSO) and/or agonist were then automatically pipetted into each test well, and the peak fluorescence intensity was recorded (lex, 488 nm; lem, 540 nm) by the FLIPR instrument (Molecular Devices) for approximately 5 min. To measure antagonist potency, cell plates were first incubated with the test compound and intracellular fluorescence recorded for 5 minutes to check a potential agonist effect of the test compound. Cell plates were quickly removed from the FLIPR instrument and incubated for additional 10 minutes at 37° C. before being moved back to the FLIPR instrument for Substance P (EC80) addition. The response was measured as the peak relative fluorescence change after agonist addition.
The IC50 value is defined as the molar concentration of a test compound that produces a response midway between the fitted top and the fitted bottom. pIC50=−log IC50
Formula is listed as follows: Fit(% Effect calculated)=(A+((B−A)/(1+((C/X)^D)))) • A: bottom value • B: top value • C: […] • D: Hill slope coefficient
Ref: Sullivan E, Tucker E M, and Dale I L. Measurement of [Ca^2+] using the Fluorometric Imaging Plate Reader (FLIPR). Methods Mol Biol 114:125-133, 1999.
Compounds of the present invention were tested according to example 120.

SMILES | IC50 [nM]
Cc1cc(C)cc(CN(C)C(=O)N2CCN3C(=O)CCC3C2c2ccccc2C)c1 (single isomer, unassigned) [Compound 1, N-[(3,5-dimethylphenyl)methyl]-N-methyl-1-(2-methylphenyl)-6-oxo-octahydropyrrolo[1,2-a]piperazine-2-carboxamide] | 6.46
Cc1ccccc1C1C2CC(CO)C(=O)N2CCN1C(=O)N(C)Cc1cc(C(F)(F)F)cc(C(F)(F)F)c1 (single isomer, unassigned) [Compound 23, N-{[3,5-bis(trifluoromethyl)phenyl]methyl}-7-(hydroxymethyl)-N-methyl-1-(2-methylphenyl)-6-oxo-octahydropyrrolo[1,2-a]piperazine-2-carboxamide] | 0.0776
Cc1ccccc1C1C2CCC(=O)N2CCCN1C(=O)N(C)Cc1cc(C(F)(F)F)cc(C(F)(F)F)c1 (mixture of isomers) [Compound 7, N-{[3,5-bis(trifluoromethyl)phenyl]methyl}-N-methyl-1-(2-methylphenyl)-7-oxo-octahydro-1H-pyrrolo[1,2-a][1,4]diazepine-2-carboxamide] | 1.07
COC(=O)C1(C)CC2C(c3ccccc3C)N(C(=O)N(C)Cc3cc(C(F)(F)F)cc(C(F)(F)F)c3)CCN2C1=O (single isomer, unassigned) [Compound 13, Methyl 2-({[3,5-bis(trifluoromethyl)phenyl]methyl}(methyl)carbamoyl)-7-methyl-1-(2-methylphenyl)-6-oxo-octahydropyrrolo{1,2-a}piperazine-7-carboxylate] | 4.17
Cc1ccccc1C1C2CCC(=O)N2CCN1C(=O)N(C)Cc1cc(C(F)(F)F)cc(C(F)(F)F)c1 (racemic) [Compound 16, N-{[3,5-bis(trifluoromethyl)phenyl]methyl}-N-methyl-1-(2-methylphenyl)-6-oxo-octahydropyrrolo[1,2-a]piperazine-2-carboxamide] | 0.229
Cc1ccccc1C1C2CCCN2CCN1C(=O)N(C)Cc1cc(C(F)(F)F)cc(C(F)(F)F)c1 (racemic) [Compound 24, N-{[3,5-bis(trifluoromethyl)phenyl]methyl}-N-methyl-1-(2-methylphenyl)-octahydropyrrolo[1,2-a]piperazine-2-carboxamide] | 1.35
Cc1ccccc1C1C2CCC(=O)N2CCN1C(=O)N(C)Cc1cccc(C(F)(F)F)c1 (single isomer, unassigned) [Compound 6, N-methyl-1-(2-methylphenyl)-6-oxo-N-{[3-(trifluoromethyl)phenyl]methyl}-Octahydropyrrolo[1,2-a]piperazine-2-carboxamide] | > 100
Cc1ccccc1C1C2CC(CO)C(=O)N2CCN1C(=O)N(C)Cc1cc(C(F)(F)F)cc(C(F)(F)F)c1 (single isomer, unassigned) [Compound 21, N-{[3,5-bis(trifluoromethyl)phenyl]methyl}-7-(hydroxymethyl)-N-methyl-1-(2-methylphenyl)-6-oxo-octahydropyrrolo[1,2-a]piperazine-2-carboxamide] | 0.0407
Cc1ccccc1C1C2CCC(=O)N2CCN1C(=O)N(C)Cc1cc(F)cc(C(F)(F)F)c1 (single isomer, unassigned) [Compound 4, N-{[3-fluoro-5-(trifluoromethyl)phenyl]methyl}-N-methyl-1-(2-methylphenyl)-6-oxo-octahydropyrrolo[1,2-a]piperazine-2-carboxamide] | 81.3
Cc1ccccc1C1C2CC(C)(C(=O)N(C)C)C(=O)N2CCN1C(=O)N(C)Cc1cc(C(F)(F)F)cc(C(F)(F)F)c1 (single isomer, unassigned) [Compound 25, 2-N-{[3,5-bis(trifluoromethyl)phenyl]methyl}-2-N,7-N,7-N,7-tetramethyl-1-(2-methylphenyl)-6-oxo-octahydropyrrolo[1,2-a]piperazine-2,7-dicarboxamide] | 22.9
COC(=O)C1(C)CC2C(c3ccccc3C)N(C(=O)N(C)Cc3cc(C(F)(F)F)cc(C(F)(F)F)c3)CCN2C1=O (single isomer, unassigned) [Compound 14, Methyl 2-({[3,5-bis(trifluoromethyl)phenyl]methyl}(methyl)carbamoyl)-7-methyl-1-(2-methylphenyl)-6-oxo-octahydropyrrolo{1,2-a}piperazine-7-carboxylate] | 0.0692

Now from value to compound:

IC50 [nM] | SMILES
0.724 | Cc1ccccc1C1C2CC(CCO)CN2CCN1C(=O)N(C)C(CCO)c1cc(C(F)(F)F)cc(C(F)(F)F)c1 (stereo not drawn) [Compound 36, N-{1-[3,5-bis(trifluoromethyl)phenyl]-3-hydroxypropyl}-7-(2-hydroxyethyl)-N-methyl-1-(2-methylphenyl)-octahydropyrrolo[1,2-a]piperazine-2-carboxamide]
2.45 | Cc1ccccc1C1C2CC(CCO)(CCO)C(=O)N2CCN1C(=O)N(C)[C@H](C)c1cc(C(F)(F)F)cc(C(F)(F)F)c1 (single isomer, unassigned) [Compound 53]
0.214 | Cc1ccccc1C1C2CC(CO)CN2CCN1C(=O)N(C)[C@H](C)c1cc(C(F)(F)F)cc(C(F)(F)F)c1 (single isomer, unassigned) [Compound 69]
4.47 | Cc1ccccc1C1C2CC(CO)CN2CCN1C(=O)N(C)[C@H](C)c1cc(C(F)(F)F)cc(C(F)(F)F)c1 (single isomer, unassigned) [Compound 68]
0.204 | Cc1ccccc1[C@H]1[C@@H]2CC(CCO)(CCO)C(=O)N2CCN1C(=O)N(C)[C@@H](CO)c1cc(C(F)(F)F)cc(C(F)(F)F)c1 [Compound 87, (1S,8aS)-N-((R)-1-(3,5-bis(trifluoromethyl)phenyl)-2-hydroxyethyl)-7,7-bis(2-hydroxyethyl)-N-methyl-6-oxo-1-o-tolylhexahydropyrrolo[1,2-a]pyrazine-2(1H)-carboxamide]
8.13 | Cc1ccccc1C1C2CC(CN3CCOCC3)C(=O)N2CCN1C(=O)N(C)[C@H](C)c1cc(C(F)(F)F)cc(C(F)(F)F)c1 (single isomer, unassigned) [Compound 72]
7.76 | Cc1ccccc1C1C2CC(CN3CCOCC3)C(=O)N2CCN1C(=O)N(C)Cc1cc(C(F)(F)F)cc(C(F)(F)F)c1 (single isomer, unassigned) [Compound 40]
30.2 | Cc1ccccc1C1C2CC(CCO)(CCO)CN2CCN1C(=O)N(C)Cc1cc(C(F)(F)F)cc(C(F)(F)F)c1 (single isomer, unassigned) [Compound 65, N-{[3,5-bis(trifluoromethyl)phenyl]methyl}-7,7-bis(2-hydroxyethyl)-N-methyl-1-(2-methylphenyl)-octahydropyrrolo[1,2-a]piperazine-2-carboxamide]
0.107 | Cc1ccccc1C1C2CC(CN3CCOCC3)C(=O)N2CCN1C(=O)N(C)[C@H](C)c1cc(C(F)(F)F)cc(C(F)(F)F)c1 (single isomer, unassigned) [Compound 73]
42.7 | Cc1ccccc1C1C2CCCN2CCN1C(=O)N(C)[C@H](C)c1cc(C(F)(F)F)cc(C(F)(F)F)c1 (single isomer, unassigned) [Compound 64]
0.0891 | Cc1ccccc1C1C2CC(CN3CCOCC3)C(=O)N2CCN1C(=O)N(C)[C@H](C)c1cc(C(F)(F)F)cc(C(F)(F)F)c1 (single isomer, unassigned) [Compound 74]
0.204 | Cc1ccccc1C1C2CC(CO)CN2CCN1C(=O)N(C)[C@H](C)c1cc(C(F)(F)F)cc(C(F)(F)F)c1 (single isomer, unassigned) [Compound 67]
2.88 | Cc1ccccc1C1C2CC(CN3CCOCC3)C(=O)N2CCN1C(=O)N(C)Cc1cc(C(F)(F)F)cc(C(F)(F)F)c1 (single isomer, unassigned) [Compound 39]
4.57 | Cc1ccccc1C1C2CC3(CCN(C)CC3)C(=O)N2CCN1C(=O)N(C)Cc1cc(C(F)(F)F)cc(C(F)(F)F)c1 (single isomer, unassigned) [Compound 46, N-{[3,5-bis(trifluoromethyl)phenyl]methyl}-N,1-dimethyl-4′-(2-methylphenyl)-1′-oxo-hexahydro-1′H-spiro[piperidine-4,2′-pyrrolo[1,2-a]piperazine]-5′-carboxamide]
66.1 | Cc1ccccc1C1C2CC(CO)CN2CCN1C(=O)N(C)[C@H](C)c1cc(C(F)(F)F)cc(C(F)(F)F)c1 (single isomer, unassigned) [Compound 70]
0.468 | Cc1ccccc1[C@H]1[C@@H]2CC(CCO)(CCO)C(=O)N2CCN1C(=O)N(C)Cc1cccc(C(F)(F)F)c1 [Compound 80, (1S,8aS)-7,7-bis(2-hydroxyethyl)-N-methyl-6-oxo-1-o-tolyl-N-(3-(trifluoromethyl)benzyl)hexahydropyrrolo[1,2-a]pyrazine-2(1H)-carboxamide]
